Laboratory results taken from patent US20190255086A1, “Compositions and Methods for Treating an Infection” (CMPD Licensing, LLC, priority 2015, published 2019).

Legend:
Bacteroides fragilis = assay: Expected efficacy of anti-bacterial agents against various bacteria (Tables 5 and 6); conditions: Gram: anaer
Clostridium difficile = assay: as above; conditions: Gram: anaer
Clostridium perfringens = conditions: expected efficacy; Clostridium perfringens; Gram: anaer
Chlamydia pneumoniae = assay: Expected efficacy of anti-bacterial agents against various bacteria (Tables 5 and 6); conditions: Gram: n/a
Chlamydia psittaci = conditions: expected efficacy; Chlamydia psittaci; Gram: n/a
Chlamydia trachomatis = assay: Expected efficacy of anti-bacterial agents against various bacteria (Tables 5 and 6); conditions: Gram: n/a
Mycoplasma pneumoniae = assay: as above; conditions: Gram: n/a
Acinetobacter baumannii = assay: as above; conditions: Gram: neg
[1] = tested on: Acinetobacter calcoaceticus; assay: as above; conditions: Gram: neg
Acinetobacter lwoffii = assay: as above; conditions: Gram: neg
Bartonella bacilliformis = assay: as above; conditions: Gram: neg
Bordetella pertussis = assay: as above; conditions: Gram: neg
Brucella species = conditions: expected efficacy; Brucella species; Gram: neg
Campylobacter jejuni = assay: Expected efficacy of anti-bacterial agents against various bacteria (Tables 5 and 6); conditions: Gram: neg
Citrobacter diversus = assay: as above; conditions: Gram: neg
Citrobacter freundii = assay: as above; conditions: Gram: neg
Enterobacter aerogenes = assay: as above; conditions: Gram: neg
Enterobacter cloacae = assay: as above; conditions: Gram: neg
Enterobacter sakazakii = assay: as above; conditions: Gram: neg
Escherichia coli = assay: as above; conditions: Gram: neg
Francisella tularensis = conditions: expected efficacy; Francisella tularensis; Gram: neg
Haemophilus influenzae = assay: Expected efficacy of anti-bacterial agents against various bacteria (Tables 5 and 6); conditions: Gram: neg
[2] = tested on: Klebsiella (Calymmatobacterium) granulomatis; assay: as above; conditions: Gram: neg
Klebsiella oxytoca = assay: as above; conditions: Gram: neg
Klebsiella pneumoniae = assay: as above; conditions: Gram: neg
Legionella pneumophila = conditions: expected efficacy; Legionella pneumophila; Gram: neg
Moraxella catarrhalis = assay: Expected efficacy of anti-bacterial agents against various bacteria (Tables 5 and 6); conditions: Gram: neg
Morganella morganii = assay: as above; conditions: Gram: neg
Neisseria meningitidis = assay: as above; conditions: Gram: neg
Proteus mirabilis = assay: as above; conditions: Gram: neg
Proteus vulgaris = assay: as above; conditions: Gram: neg
Providencia rettgeri = assay: as above; conditions: Gram: neg
Providencia stuartii = assay: as above; conditions: Gram: neg
Pseudomonas aeruginosa = assay: as above; conditions: Gram: neg
Pseudomonas fluorescens = assay: as above; conditions: Gram: neg
Rickettsiae = conditions: expected efficacy; Rickettsiae; Gram: neg
Serratia marcescens = assay: Expected efficacy of anti-bacterial agents against various bacteria (Tables 5 and 6); conditions: Gram: neg
Vibrio cholerae = assay: as above; conditions: Gram: neg
Corynebacterium jeikeium = assay: as above; conditions: Gram: pos
Enterococcus faecalis = assay: as above; conditions: Gram: pos
Enterococcus faecium = assay: as above; conditions: Gram: pos
[3] = tested on: Methicillin resistant staph aureus (MRSA); assay: as above; conditions: Gram: pos
[4] = tested on: Staphylococcus aureus (MSSA); assay: as above; conditions: Gram: pos
[5] = tested on: Staphylococcus epidermidis; assay: as above; conditions: Gram: pos
Streptococcus agalactiae = assay: as above; conditions: Gram: pos
Streptococcus pneumoniae = assay: as above; conditions: Gram: pos
Streptococcus pyogenes = assay: as above; conditions: Gram: pos
[6] = tested on: Haemophilus parainfluenzae; assay: as above; conditions: Gram: neg
Neisseria gonorrhoeae = assay: as above; conditions: Gram: neg
Salmonella typhi = assay: as above; conditions: Gram: neg
Shigella boydii = assay: as above; conditions: Gram: neg
Shigella dysenteriae = assay: as above; conditions: Gram: neg
Shigella flexneri = assay: as above; conditions: Gram: neg
Shigella sonnei = assay: as above; conditions: Gram: neg
Yersinia pestis = conditions: expected efficacy; Yersinia pestis; Gram: neg

## CC[C@H]1OC(=O)[C@H](C)[C@@H](O[C@H]2C[C@@](C)(OC)[C@@H](O)[C@H](C)O2)[C@H](C)[C@@H](O[C@@H]2O[C@H](C)C[C@H](N(C)C)[C@H]2O)[C@](C)(O)C[C@@H](C)CN(C)[C@H](C)[C@@H](O)[C@]1(C)O [Azithromycin]
Bacteroides fragilis
  Efficacy of various antibiotic agents: no
Clostridium difficile
  Efficacy of various antibiotic agents: no
Clostridium perfringens
  Efficacy of various antibiotic agents: no
Chlamydia pneumoniae
  Efficacy of various antibiotic agents: yes
Chlamydia psittaci
  Efficacy of various antibiotic agents: yes
Chlamydia trachomatis
  Efficacy of various antibiotic agents: yes
Mycoplasma pneumoniae
  Efficacy of various antibiotic agents: yes
Acinetobacter baumannii
  Efficacy of various antibiotic agents: no
[1]
  Efficacy of various antibiotic agents: no
Acinetobacter lwoffii
  Efficacy of various antibiotic agents: no
Bartonella bacilliformis
  Efficacy of various antibiotic agents: yes
Bordetella pertussis
  Efficacy of various antibiotic agents: yes
Brucella species
  Efficacy of various antibiotic agents: no
Campylobacter jejuni
  Efficacy of various antibiotic agents: yes
Citrobacter diversus
  Efficacy of various antibiotic agents: no
Citrobacter freundii
  Efficacy of various antibiotic agents: no
Enterobacter aerogenes
  Efficacy of various antibiotic agents: no
Enterobacter cloacae
  Efficacy of various antibiotic agents: no
Enterobacter sakazakii
  Efficacy of various antibiotic agents: no
Escherichia coli
  Efficacy of various antibiotic agents: no
Francisella tularensis
  Efficacy of various antibiotic agents: no
Haemophilus influenzae
  Efficacy of various antibiotic agents: yes
[2]
  Efficacy of various antibiotic agents: no
Klebsiella oxytoca
  Efficacy of various antibiotic agents: no
Klebsiella pneumoniae
  Efficacy of various antibiotic agents: no
Legionella pneumophila
  Efficacy of various antibiotic agents: yes
Moraxella catarrhalis
  Efficacy of various antibiotic agents: yes
Morganella morganii
  Efficacy of various antibiotic agents: no
Neisseria meningitidis
  Efficacy of various antibiotic agents: yes
Proteus mirabilis
  Efficacy of various antibiotic agents: no
Proteus vulgaris
  Efficacy of various antibiotic agents: no
Providencia rettgeri
  Efficacy of various antibiotic agents: no
Providencia stuartii
  Efficacy of various antibiotic agents: no
Pseudomonas aeruginosa
  Efficacy of various antibiotic agents: no
Pseudomonas fluorescens
  Efficacy of various antibiotic agents: no
Rickettsiae
  Efficacy of various antibiotic agents: yes
Serratia marcescens
  Efficacy of various antibiotic agents: no
Vibrio cholerae
  Efficacy of various antibiotic agents: yes
Corynebacterium jeikeium
  Efficacy of various antibiotic agents: no
Enterococcus faecalis
  Efficacy of various antibiotic agents: no
Enterococcus faecium
  Efficacy of various antibiotic agents: no
[3]
  Efficacy of various antibiotic agents: no
[4]
  Efficacy of various antibiotic agents: yes
[5]
  Efficacy of various antibiotic agents: yes
Streptococcus agalactiae
  Efficacy of various antibiotic agents: yes
Streptococcus pneumoniae
  Efficacy of various antibiotic agents: yes
Streptococcus pyogenes
  Efficacy of various antibiotic agents: yes

## O=C(O)c1cn(C2CC2)c2cc(N3CCNCC3)c(F)cc2c1=O [Ciprofloxacin]
Bacteroides fragilis
  Efficacy of various antibiotic agents: no
Chlamydia pneumoniae
  Efficacy of various antibiotic agents: yes
Bartonella bacilliformis
  Efficacy of various antibiotic agents: yes
Campylobacter jejuni
  Efficacy of various antibiotic agents: yes
Citrobacter diversus
  Efficacy of various antibiotic agents: yes
Citrobacter freundii
  Efficacy of various antibiotic agents: yes
Enterobacter aerogenes
  Efficacy of various antibiotic agents: yes
Escherichia coli
  Efficacy of various antibiotic agents: yes
Francisella tularensis
  Efficacy of various antibiotic agents: yes
Haemophilus influenzae
  Efficacy of various antibiotic agents: yes
[6]
  Efficacy of various antibiotic agents: yes
Klebsiella oxytoca
  Efficacy of various antibiotic agents: yes
Klebsiella pneumoniae
  Efficacy of various antibiotic agents: yes
Legionella pneumophila
  Efficacy of various antibiotic agents: yes
Moraxella catarrhalis
  Efficacy of various antibiotic agents: yes
Morganella morganii
  Efficacy of various antibiotic agents: yes
Neisseria gonorrhoeae
  Efficacy of various antibiotic agents: yes
Neisseria meningitidis
  Efficacy of various antibiotic agents: yes
Proteus mirabilis
  Efficacy of various antibiotic agents: yes
Proteus vulgaris
  Efficacy of various antibiotic agents: yes
Providencia rettgeri
  Efficacy of various antibiotic agents: yes
Providencia stuartii
  Efficacy of various antibiotic agents: yes
Pseudomonas aeruginosa
  Efficacy of various antibiotic agents: yes
Pseudomonas fluorescens
  Efficacy of various antibiotic agents: yes
Rickettsiae
  Efficacy of various antibiotic agents: yes
Salmonella typhi
  Efficacy of various antibiotic agents: yes
Serratia marcescens
  Efficacy of various antibiotic agents: yes
Shigella boydii
  Efficacy of various antibiotic agents: yes
Shigella dysenteriae
  Efficacy of various antibiotic agents: yes
Shigella flexneri
  Efficacy of various antibiotic agents: yes
Shigella sonnei
  Efficacy of various antibiotic agents: yes
Vibrio cholerae
  Efficacy of various antibiotic agents: yes
Yersinia pestis
  Efficacy of various antibiotic agents: yes
Corynebacterium jeikeium
  Efficacy of various antibiotic agents: no
Enterococcus faecium
  Efficacy of various antibiotic agents: no
[3]
  Efficacy of various antibiotic agents: no
[5]
  Efficacy of various antibiotic agents: yes
